pIC50: −log10 of the molar value. Where two headings read alike, the source gives them in different places.
Tests used:
[1] = target: VIM-1 (Pseudomonas aeruginosa (strain ATCC 15692 / DSM 22644 / CIP 104116 / JCM 14847 / LMG 12228 / 1C / PRS 101 / PAO1), UniProt A0A0F7KYQ8); test: Enzyme activity: determination of IC50, fluorescence assay with CCF2-FA substrate (VIM-1); assay type: biochemical
[2] = tested on: Klebsiella pneumoniae expressing VIM-1 (IHMA599644); test: Antibiotic potentiation activity: synergistic concentration (MITC95) with imipenem, OD600 growth; assay type: cell-based
Method in brief: (§1)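 Test compound was combined with 4 μg/ml imipenem (or optionally 1 μg/ml), or with no antibiotic, against saline-suspended colonies diluted 1:100 in 1.1×CAMHB. Strains were E. coli NDM-1, S. marcescens IMP-1 and K. pneumoniae VIM-1. Plates were incubated 22–24 h at 35 °C before absorbance (OD600) readout.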

[3] = tested on: Escherichia coli expressing NDM-1 (CLB30016); test: as above; assay type: cell-based
Method in brief: as §1

[4] = tested on: Serratia marcescens expressing IMP-1 (CL5741); test: as above; assay type: cell-based
Method in brief: as §1

[5] = target: NDM-1 (Klebsiella pneumoniae, UniProt C7C422); test: biochemical; assay type: biochemical; conditions: read-out: NDM-1 IC50
Procedure: Enzyme Activity: Determination of IC50
The Class B enzyme activities were measured in the presence of the test inhibitor in a fluorescence assay against a commercially available substrate consisting of a cephalosporin core linking 7-hydroxycoumarin to fluorescein (CCF2-FA). The enzyme (NDM-1, IMP-1 or VIM-1) and the substrate were diluted in 100 mM KH2PO4 buffer (pH 7) containing 0.005% Tween-20 and 10 μM ZnSO4. […] The test inhibitor was dissolved in dimethylsulfoxide and diluted 1:50 in the assay, resulting in a final concentration range of 20 uM to 0.00063 uM. In a 384-well microplate, the test inhibitor was incubated with the metallo-β-lactamase enzyme and the substrate for 2 hours at 25° C. Fluorescence at 460 nm following excitation at 405 nm was measured. The IC50 value was determined from semi-logarithmic plots of enzyme inhibition versus inhibitor concentration, with a curve generated using a 4-parameter fit.

[6] = target: IMP-1 (Serratia marcescens, UniProt P52699); test: biochemical; assay type: biochemical; conditions: read-out: IMP-1 IC50
[7] = VIM-1 enzyme, CCF2-FA substrate, read-out: VIM-1 IC50
[8] = Klebsiella pneumoniae IHMA599644 (VIM-1), 95% growth inhibition
[9] = (CLB30016, NDM-1), 95% growth inhibition
[10] = Serratia marcescens CL5741 (IMP-1), 95% growth inhibition
[11] = NDM-1 enzyme, CCF2-FA substrate
[12] = IMP-1 enzyme, CCF2-FA substrate
[13] = VIM-1 enzyme, CCF2-FA fluorescence assay, read-out: VIM-1 IC50
[14] = Klebsiella pneumoniae expressing VIM-1 (IHMA599644), 95% growth inhibition
[15] = Escherichia coli expressing NDM-1 (CLB30016), 95% growth inhibition
[16] = Serratia marcescens expressing IMP-1 (CL5741), 95% growth inhibition
[17] = NDM-1 enzyme, CCF2-FA fluorescence assay
[18] = IMP-1 enzyme, CCF2-FA fluorescence assay
[19] = VIM-1 IC50, fluorescence assay with CCF2-FA substrate
[20] = concentration giving 95% inhibition of bacterial growth
[21] = fluorescence assay with CCF2-FA substrate
[22] = VIM-1 IC50, VIM-1 enzyme, CCF2-FA substrate
[23] = fluorescence assay with CCF2-FA substrate, read-out: VIM-1 IC50
[24] = IHMA599644 (VIM-1), 95% inhibition of bacterial growth
[25] = CLB30016 (NDM-1), 95% inhibition of bacterial growth
[26] = CL5741 (IMP-1), 95% inhibition of bacterial growth

Sequence of NDM-1 (C7C422 whole entry, looked up, species assumed): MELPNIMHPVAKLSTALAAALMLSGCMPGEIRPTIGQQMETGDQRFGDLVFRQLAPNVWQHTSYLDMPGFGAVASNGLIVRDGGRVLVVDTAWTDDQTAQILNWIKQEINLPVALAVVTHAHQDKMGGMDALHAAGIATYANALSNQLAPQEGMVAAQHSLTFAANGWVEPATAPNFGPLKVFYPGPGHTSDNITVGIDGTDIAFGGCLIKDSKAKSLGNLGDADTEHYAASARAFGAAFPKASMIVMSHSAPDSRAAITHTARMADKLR
Sequence of IMP-1 (P52699 whole entry, looked up): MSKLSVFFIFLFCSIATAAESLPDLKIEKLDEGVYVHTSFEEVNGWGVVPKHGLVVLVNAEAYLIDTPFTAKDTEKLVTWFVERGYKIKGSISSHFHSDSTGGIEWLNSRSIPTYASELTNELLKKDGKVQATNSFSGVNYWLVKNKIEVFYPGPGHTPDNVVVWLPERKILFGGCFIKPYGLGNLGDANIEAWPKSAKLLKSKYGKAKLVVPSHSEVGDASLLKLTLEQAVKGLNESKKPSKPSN

| Structure (SMILES) | pIC50 [1, 7] | Klebsiella pneumoniae MITC95 [2, 8] [µM] | Escherichia coli MITC95 [3, 9] [µM] | Serratia marcescens MITC95 [4, 10] [µM] | pIC50 [5, 11] | pIC50 [6, 12] | pIC50 [5, 21] | pIC50 [6, 21] | other results |
| --- | --- | --- | --- | --- | --- | --- | --- | --- | --- |
| Nc1ccc2cccc(-c3ccc(C(F)(F)F)c(S(N)(=O)=O)c3-c3nn[nH]n3)c2n1 [Example 554, 3-(2-amino-8-quinolyl)-2-(2H-tetrazol-5-yl)-6-(trifluoromethyl)benzenesulfonamide] | 9.44 | 3.125 | 3.125 | 1.563 | 9.94 | 9.09 | – | – | – |
| NS(=O)(=O)c1c(C(F)(F)F)ccc(N2CCC(c3ccc(CO)cc3)CC2)c1-c1nn[nH]n1 [Example 450, 3-(4-(4-(hydroxymethyl)phenyl)piperidin-1-yl)-2-(2H-tetrazol-5-yl)-6-(trifluoromethyl)benzenesulfonamide] | – | – | – | – | – | – | – | – | pIC50 [1, 13]: 8.74; Klebsiella pneumoniae MITC95 [2, 14]: 75 µM; Escherichia coli MITC95 [3, 15]: 18.75 µM; Serratia marcescens MITC95 [4, 16]: 0.03125 µM; pIC50 [5, 17]: 8.79; pIC50 [6, 18]: 8.89 |
| NC(=O)C1CCN(c2ccc(C(F)(F)F)c(S(N)(=O)=O)c2-c2nnn[nH]2)CC1 [Example 656, 1-[3-sulfamoyl-2-(1H-tetrazol-5-yl)-4-(trifluoromethyl)phenyl]piperidine-4-carboxamide] | 9.10 | 3.125 | 0.5781 | 0.125 | 8.70 | 8.55 | – | – | – |
| NS(=O)(=O)c1cccc(CCc2ccccc2)c1-c1nnn[nH]1 [Example 154, 3-phenethyl-2-(1H-tetrazol-5-yl)benzenesulfonamide] | – | – | – | – | – | – | 8.48 | 7.97 | pIC50 [1, 19]: 7.09; Klebsiella pneumoniae expressing VIM-1 (IHMA 599644) MITC95 [2, 20]: 100 µM; Escherichia coli expressing NDM-1 (CLB 30016) MITC95 [3, 20]: 2.344 µM; Serratia marcescens expressing IMP-1 (CL5741) MITC95 [4, 20]: 0.3906 µM |
| NC1(c2ccc(-c3ccc(C(F)(F)F)c(S(N)(=O)=O)c3-c3nnn[nH]3)cc2)CCCC1 [Example 729, 4′-(1-aminocyclopentyl)-2-(1H-tetrazol-5-yl)-4-(trifluoromethyl)biphenyl-3-sulfonamide] | 8.13 | 25 | 6.25 | 6.25 | 8.31 | 8.16 | – | – | – |
| Cc1ccc(-c2ccc(C(F)(F)F)c(S(N)(=O)=O)c2-c2nnn[nH]2)c2[nH]c(N)nc12 [Example 568, 3-(2-amino-4-methyl-1H-benzo[d]imidazol-7-yl)-2-(1H-tetrazol-5-yl)-6-(trifluoromethyl)benzenesulfonamide] | 9.79 | 1.563 | 0.3906 | 1.563 | 10.01 | 8.93 | – | – | – |
| NS(=O)(=O)c1c(Cl)ccc(-c2ccc(C3CCNCC3)cc2)c1-c1nn[nH]n1 [Example 276, 4-chloro-4′-(piperidin-4-yl)-2-(2H-tetrazol-5-yl)-[1,1′-biphenyl]-3-sulfonamide] | – | – | – | – | – | – | – | – | pIC50 ([1]; VIM-1 IC50, VIM-1 enzyme, CCF2-FA fluorescence assay): 8.47; Klebsiella pneumoniae MITC95 [2, 14]: 1.563 µM; Escherichia coli MITC95 [3, 15]: 0.7813 µM; Serratia marcescens MITC95 [4, 16]: 0.3906 µM; pIC50 [5, 17]: 8.26; pIC50 [6, 18]: 8.06 |
| Nc1cc(-c2ccc(C(F)(F)F)c(S(N)(=O)=O)c2-c2nnn[nH]2)cc(N)n1 [Example 714, 3-(2,6-diaminopyridin-4-yl)-2-(1H-tetrazol-5-yl)-6-(trifluoromethyl)benzenesulfon-amide] | – | 3.125 | 1.563 | 12.5 | 8.30 | 7.50 | – | – | pIC50 [1, 22]: 9.10 |
| N[C@@H]1CN(c2ccc(C(F)(F)F)c(S(N)(=O)=O)c2-c2nnn[nH]2)CC12CC2 [Example 754, 3-[(7S)-7-amino-5-azaspiro[2.4]hept-5-yl]-2-(1H-tetrazol-5-yl)-6-(trifluoromethyl) benzenesulfonamide] | – | – | – | – | – | – | 6.22 | 6.06 | pIC50 [1, 23]: 8.11; Klebsiella pneumoniae MITC95 [2, 24]: 12.5 µM; Escherichia coli MITC95 [3, 25]: 25 µM; Serratia marcescens MITC95 [4, 26]: 50 µM |
| NC1(c2ccc(-c3ccc(C(F)(F)F)c(S(N)(=O)=O)c3-c3nnn[nH]3)cc2)CC(O)C1 (stereo not drawn) [Example 728, 4′-(1-amino-3-hydroxycyclobutyl)-2-(1H-tetrazol-5-yl)-4-(trifluoromethyl)biphenyl-3-sulfonamide] | – | 25 | 3.125 | 6.25 | 8.59 | 8.38 | – | – | pIC50 [1, 22]: 8.40 |
| NS(=O)(=O)c1c(C(F)(F)F)ccc(C2CCN(C3CCNCC3)CC2)c1-c1nnn[nH]1 [Example 835, 3-[1-(4-piperidyl)-4-piperidyl]-2-(1H-tetrazol-5-yl)-6-(trifluoromethyl)benzenesulfonamide] | – | – | – | – | – | – | 7.02 | 6.63 | pIC50 [1, 23]: 6.72; Klebsiella pneumoniae MITC95 [2, 24]: 100 µM; Escherichia coli MITC95 [3, 25]: 3.125 µM; Serratia marcescens MITC95 [4, 26]: 6.25 µM |
| Nc1nc2cc(C(F)(F)F)cc(-c3ccc(C(F)(F)F)c(S(N)(=O)=O)c3-c3nnn[nH]3)c2[nH]1 [Example 567] | 9.65 | 6.25 | 3.125 | 6.25 | 9.52 | 8.42 | – | – | – |
| NC[C@H]1CC[C@H](Cc2ccc(-c3ccc(C4CCNC4)cc3)c(-c3nnn[nH]3)c2S(N)(=O)=O)CC1 (stereo partly drawn) [Example 586, 4-(((1r,4r)-4-(aminomethyl)cyclohexyl)methyl)-4′-(pyrrolidin-3-yl)-2-(1H-tetrazol-5-yl)-[1,1′-biphenyl]-3-sulfonamide] | 8.93 | 1.563 | 0.7813 | 1.563 | 8.63 | 8.15 | – | – | – |
| CC1(C)CCN(Cc2ccc(-c3cccc(S(N)(=O)=O)c3-c3nnn[nH]3)cc2)C1 [Example 346, 4′-[(3,3-dimethylpyrrolidin-1-yl)methyl]-2-(1H-tetrazol-5-yl)biphenyl-3-sulfonamide] | – | – | – | – | – | – | – | – | pIC50 [1, 13]: 6.39; Klebsiella pneumoniae MITC95 [2, 14]: 150 µM; Escherichia coli MITC95 [3, 15]: 1.563 µM; Serratia marcescens MITC95 [4, 16]: 2.344 µM; pIC50 [5, 17]: 7.93; pIC50 [6, 18]: 6.63 |
| NC1CCC(N2CCC(c3ccc(-c4ccc(C(F)(F)F)c(S(N)(=O)=O)c4-c4nnn[nH]4)cc3)CC2)C1 (stereo not drawn) [Example 786, 4′-[1-(3-aminocyclopentyl)piperidin-4-yl]-2-(1H-tetrazol-5-y)-4-(trifluoromethyl)biphenyl-3-sulfonamide] | – | – | – | – | – | – | 8.21 | 8.68 | pIC50 [1, 23]: 7.92; Klebsiella pneumoniae MITC95 [2, 24]: 50 µM; Escherichia coli MITC95 [3, 25]: 1.563 µM; Serratia marcescens MITC95 [4, 26]: 3.125 µM |
| NS(=O)(=O)c1c(C(F)(F)F)ccc(N2CCCC(CCCO)C2)c1-c1nnn[nH]1 (stereo not drawn) [Example 769, 3-[3-(3-hydroxypropyl)piperidin-1-yl]-2-(1H-tetrazol-5-yl)-6-(trifluoromethyl) benzenesulfonamide] | – | – | – | – | – | – | 8.13 | 7.94 | pIC50 [1, 23]: 9.00; Klebsiella pneumoniae MITC95 [2, 24]: 50 µM; Escherichia coli MITC95 [3, 25]: 100 µM; Serratia marcescens MITC95 [4, 26]: 25 µM |
| N=C(N)N1CCC2(CCC(c3ccc(C(F)(F)F)c(S(N)(=O)=O)c3-c3nnn[nH]3)CC2)CC1 [Example 826, 9-[3-sulfamoyl-2-(1H-tetrazol-5-yl)-4-(trifluoromethyl)phenyl]-3-azaspiro[5.5]undecane-3-carboxamidine] | – | – | – | – | – | – | 9.31 | 8.84 | pIC50 [1, 19]: 8.87; Klebsiella pneumoniae MITC95 [2, 24]: 25 µM; Escherichia coli MITC95 [3, 25]: 1.563 µM; Serratia marcescens MITC95 [4, 26]: 3.125 µM |
| N=C(N)N1CC(c2ccc(-c3ccc(CC4CCNCC4)c(S(N)(=O)=O)c3-c3nn[nH]n3)cc2)C1 [Example 603, 3-[4-[4-(4-piperidylmethyl)-3-sulfamoyl-2-(2H-tetrazol-5-yl)phenyl]phenyl]azetidine-1-carboxamidine] | 8.33 | 1.563 | 3.125 | 1.563 | 7.67 | 7.50 | – | – | – |
| CNCc1ccc(-c2cccc(S(N)(=O)=O)c2-c2nnn[nH]2)cc1 [Example 334, 4′-((methylamino)methyl)-2-(1H-tetrazol-5-yl)-[1,1′-biphenyl]-3-sulfonamide] | – | – | – | – | – | – | – | – | pIC50 [1, 13]: 6.89; Klebsiella pneumoniae MITC95 [2, 14]: 9.375 µM; Escherichia coli MITC95 [3, 15]: 0.3906 µM; Serratia marcescens MITC95 [4, 16]: 3.125 µM; pIC50 [5, 17]: 7.98; pIC50 [6, 18]: 6.41 |

From patent US9708336B2, “Metallo-beta-lactamase inhibitors” (priority 2014, dated 2017)
